Assay results published in patent US20250129121A1, “POLYPEPTIDE, PRODUCT INCLUDING POLYPEPTIDE FOR INHIBITING FUSOBACTERIUM NUCLEATUM, OR DRUG FOR PREVENTING COLORECTAL CANCER” (priority 2022, published 2025).
≈ marks a conversion by molar mass, not a printed value. Where a SMILES comes first, the peptide text is derived from it.

Assays:
F. nucleatum 10953 = type: cell-based, Fusobacterium nucleatum; conditions: 10953, 20 h
Experimental: (§1) A. Each polypeptide was prepared into a specified stock solution for later use. Minimum inhibitory concentrations (MICs) of the polypeptides P1 to P12 were determined by a broth microdilution method. With 0.01% acetic acid (including 0.2% of bovine serum albumin (BSA)) as a diluent, a series of gradient antimicrobial peptide solutions were prepared by a two-fold dilution method.
(§2) B. 100 μL of each polypeptide stock solution was taken and added to a 96-well cell culture plate, and then each strain solution to be tested (about 10^5/mL) was added in an equal volume to each well. A positive control (including a strain solution, but not including a polypeptide) and a negative control (including neither a strain solution nor a polypeptide). Strains to be tested include Escherichia coli Nissile 1917, Vibrio cholerae H1, Pseudomonas aeruginosa PAO1, F. nucleatum 25586, F. nucleatum 10953, Bifidobacterium uniformis 6597, Lactobacillus acidophilus 6075, Bifidobacterium longum 6194Lactobacillus rhamnosus 6141, and Streptococcus agalactiae H94.
(§3) C. The cell culture plate was incubated at a constant temperature of 37° C. for 20 h, and MIC was recorded when the turbidity was not observed by naked eyes at a bottom of a well. The strains all were purchased from the market.

F. nucleatum 25586 = type: cell-based, Fusobacterium nucleatum; conditions: 25586, 20 h
Experimental: as §1, §2, §3

[1] = test system: Streptococcus agalactiae H94; type: cell-based; conditions: H94, 20 h
Experimental: as §1, §2, §3

[2] = test system: Bifidobacterium uniformis 6597; type: cell-based; conditions: 20 h
Experimental: as §1, §2, §3

[3] = test system: Pseudomonas aeruginosa PAO1; type: cell-based; conditions: PAO1, 20 h
Experimental: as §1, §2, §3

[4] = test system: Lactobacillus acidophilus 6075; type: cell-based; conditions: 20 h
Experimental: as §1, §2, §3

[5] = test system: Bifidobacterium longum 6194; type: cell-based; conditions: 20 h
Experimental: as §1, §2, §3

[6] = test system: Lactobacillus rhamnosus 6141; type: cell-based; conditions: 20 h
Experimental: as §1, §2, §3

[7] = test system: Escherichia coli Nissile 1917; type: cell-based; conditions: Nissile 1917, 20 h
Experimental: as §1, §2, §3

SMILES	MIC Fusobacterium nucleatum 10953 (F. nucleatum 10953) [µM]	MIC Fusobacterium nucleatum 25586 (F. nucleatum 25586) [µM]	MIC Streptococcus agalactiae H94 [1] [µM]	MIC Bifidobacteriu muniformis 6597 [2] [µM]	MIC Pseudomonas aeruginosa PAO1 [3] [µM]	MIC Lactobacillus acidophilus 6075 [4] [µM]	MIC Bifidobacterium longum 6194 [5] [µM]	MIC Lactobacterium rhamnosus 6141 [6] [µM]	MIC Escherichia coli nissile1917 [7] [µM]
N=C(N)NCCC[C@H](NC(=O)CNC(=O)[C@@H]1CCCN1C(=O)[C@H](CCCNC(=N)N)NC(=O)[C@H](Cc1c[nH]c2ccccc12)NC(=O)[C@H](CCCCN)NC(=O)[C@H](Cc1c[nH]c2ccccc12)NC(=O)[C@H](Cc1c[nH]c2ccccc12)NC(=O)[C@H](CCCCN)NC(=O)[C@H](Cc1c[nH]c2ccccc12)NC(=O)[C@H](CCCNC(=N)N)NC(=O)CNC(=O)[C@@H]1CCCN1C(=O)[C@H](CCCNC(=N)N)NC(=O)[C@H](Cc1c[nH]c2ccccc12)NC(=O)[C@H](CCCCN)NC(=O)[C@@H](N)Cc1c[nH]c2ccccc12)C(=O)N[C@@H](Cc1c[nH]c2ccccc12)C(=O)N[C@@H](CCCCN)C(=O)N[C@@H](Cc1c[nH]c2ccccc12)C(=O)O [P12] (H-WKWRPGRWKWWKWRPGRWKW-OH; N-terminus assumed)	2 (≈ 5.91 µg/mL)	2 (≈ 5.91 µg/mL)	2 (≈ 5.91 µg/mL)	64 (≈ 189 µg/mL)	32 (≈ 94.5 µg/mL)	32 (≈ 94.5 µg/mL)	16 (≈ 47.3 µg/mL)	>64	32 (≈ 94.5 µg/mL)
N=C(N)NCCC[C@H](NC(=O)CNC(=O)[C@@H]1CCCN1C(=O)[C@H](CCCNC(=N)N)NC(=O)[C@H](Cc1c[nH]c2ccccc12)NC(=O)[C@H](CC(=O)O)NC(=O)[C@H](Cc1c[nH]c2ccccc12)NC(=O)[C@H](CCCNC(=N)N)NC(=O)[C@H](Cc1c[nH]c2ccccc12)NC(=O)[C@H](CC(=O)O)NC(=O)[C@@H](N)Cc1c[nH]c2ccccc12)C(=O)N[C@@H](Cc1c[nH]c2ccccc12)C(=O)N[C@@H](CC(=O)O)C(=O)N[C@@H](Cc1c[nH]c2ccccc12)C(=O)N[C@@H](CCCNC(=N)N)C(=O)N[C@@H](Cc1c[nH]c2ccccc12)C(=O)N[C@@H](CC(=O)O)C(=O)N[C@@H](Cc1c[nH]c2ccccc12)C(=O)O [P5, WDWRWDWRPGRWDWRWDW] (H-WDWRWDWRPGRWDWRWDW-OH; N-terminus assumed)	>64	>64	>64	>64	>64	>64	>64	>64	64 (≈ 176 µg/mL)
N=C(N)NCCC[C@H](NC(=O)CNC(=O)[C@@H]1CCCN1C(=O)[C@H](CCCNC(=N)N)NC(=O)[C@H](Cc1c[nH]c2ccccc12)NC(=O)[C@H](CC(=O)O)NC(=O)[C@@H](N)Cc1c[nH]c2ccccc12)C(=O)N[C@@H](Cc1c[nH]c2ccccc12)C(=O)N[C@@H](CC(=O)O)C(=O)N[C@@H](Cc1c[nH]c2ccccc12)C(=O)O [P4, WDWRPGRWDW] (H-WDWRPGRWDW-OH; N-terminus assumed)	>64	>64	>64	>64	>64	>64	>64	>64	>64
N=C(N)NCCC[C@H](NC(=O)CNC(=O)[C@@H]1CCCN1C(=O)[C@H](CCCNC(=N)N)NC(=O)[C@H](Cc1c[nH]c2ccccc12)NC(=O)[C@H](CCCCN)NC(=O)[C@@H](N)Cc1c[nH]c2ccccc12)C(=O)N[C@@H](Cc1c[nH]c2ccccc12)C(=O)N[C@@H](CCCCN)C(=O)N[C@@H](Cc1c[nH]c2ccccc12)C(=O)O [P10, WKWRPGRWKW] (H-WKWRPGRWKW-OH; N-terminus assumed)	16 (≈ 23.8 µg/mL)	8 (≈ 11.9 µg/mL)	>64	64 (≈ 95.1 µg/mL)	>64	64 (≈ 95.1 µg/mL)	>64	>64	64 (≈ 95.1 µg/mL)
N=C(N)NCCC[C@H](NC(=O)CNC(=O)[C@@H]1CCCN1C(=O)[C@H](CCCNC(=N)N)NC(=O)[C@H](Cc1c[nH]c2ccccc12)NC(=O)[C@H](CCC(=O)O)NC(=O)[C@H](Cc1c[nH]c2ccccc12)NC(=O)[C@H](CCCNC(=N)N)NC(=O)[C@H](Cc1c[nH]c2ccccc12)NC(=O)[C@H](CCC(=O)O)NC(=O)[C@@H](N)Cc1c[nH]c2ccccc12)C(=O)N[C@@H](Cc1c[nH]c2ccccc12)C(=O)N[C@@H](CCC(=O)O)C(=O)N[C@@H](Cc1c[nH]c2ccccc12)C(=O)N[C@@H](CCCNC(=N)N)C(=O)N[C@@H](Cc1c[nH]c2ccccc12)C(=O)N[C@@H](CCC(=O)O)C(=O)N[C@@H](Cc1c[nH]c2ccccc12)C(=O)O [P2, WEWRWEWRPGRWEWRWEW] (H-WEWRWEWRPGRWEWRWEW-OH; N-terminus assumed)	>64	>64	>64	>64	>64	>64	>64	>64	>64
N=C(N)NCCC[C@H](NC(=O)CNC(=O)[C@@H]1CCCN1C(=O)[C@H](CCCNC(=N)N)NC(=O)[C@H](Cc1c[nH]c2ccccc12)NC(=O)[C@H](Cc1c[nH]cn1)NC(=O)[C@H](Cc1c[nH]c2ccccc12)NC(=O)[C@H](Cc1c[nH]c2ccccc12)NC(=O)[C@H](Cc1c[nH]cn1)NC(=O)[C@H](Cc1c[nH]c2ccccc12)NC(=O)[C@H](CCCNC(=N)N)NC(=O)CNC(=O)[C@@H]1CCCN1C(=O)[C@H](CCCNC(=N)N)NC(=O)[C@H](Cc1c[nH]c2ccccc12)NC(=O)[C@H](Cc1c[nH]cn1)NC(=O)[C@@H](N)Cc1c[nH]c2ccccc12)C(=O)N[C@@H](Cc1c[nH]c2ccccc12)C(=O)N[C@@H](Cc1c[nH]cn1)C(=O)N[C@@H](Cc1c[nH]c2ccccc12)C(=O)O [P9] (H-WHWRPGRWHWWHWRPGRWHW-OH; N-terminus assumed)	64 (≈ 191 µg/mL)	64 (≈ 191 µg/mL)	>64	>64	>64	64 (≈ 191 µg/mL)	64 (≈ 191 µg/mL)	>64	>64
N=C(N)NCCC[C@H](NC(=O)CNC(=O)[C@@H]1CCCN1C(=O)[C@H](CCCNC(=N)N)NC(=O)[C@H](Cc1c[nH]c2ccccc12)NC(=O)[C@H](CC(=O)O)NC(=O)[C@H](Cc1c[nH]c2ccccc12)NC(=O)[C@H](Cc1c[nH]c2ccccc12)NC(=O)[C@H](CC(=O)O)NC(=O)[C@H](Cc1c[nH]c2ccccc12)NC(=O)[C@H](CCCNC(=N)N)NC(=O)CNC(=O)[C@@H]1CCCN1C(=O)[C@H](CCCNC(=N)N)NC(=O)[C@H](Cc1c[nH]c2ccccc12)NC(=O)[C@H](CC(=O)O)NC(=O)[C@@H](N)Cc1c[nH]c2ccccc12)C(=O)N[C@@H](Cc1c[nH]c2ccccc12)C(=O)N[C@@H](CC(=O)O)C(=O)N[C@@H](Cc1c[nH]c2ccccc12)C(=O)O [P6] (H-WDWRPGRWDWWDWRPGRWDW-OH; N-terminus assumed)	64 (≈ 186 µg/mL)	64 (≈ 186 µg/mL)	>64	>64	>64	>64	>64	>64	64 (≈ 186 µg/mL)
